Target: Mitogen-activated protein kinase kinase kinase 1/RAF proto-oncogene serine/threonine-protein kinase (Homo sapiens, UniProt P04049+Q02750)
Assay: AlphaLISA Assay
Experimental: 5 μL 4×MEK1 stock solution was added to wells A1-P20 by multichannel pipettes. […] 5 μL 4×CRAF stock solution at different concentrations or 5 μL or 10 μL AlphaLISA buffer was added by multichannel pipettes. The plate was sealed, centrifuged at 1000 rpm for 1 minute, and incubated at room temperature for 60 minutes. 5 μL 4×glutathione acceptor beads were first added to all wells by multichannel pipettes. The ambient light was subsequently adjusted to <100 lux (light meter) before adding 5 μL 4×nickel chelate donor beads to the same wells. From this step on, the plate was covered with a black plate cover, centrifuged at 1000 rpm for 1 minute, and incubated at room temperature for 60 minutes.

Chain of Mitogen-activated protein kinase kinase kinase 1/RAF proto-oncogene serine/threonine-protein kinase (P04049 whole entry): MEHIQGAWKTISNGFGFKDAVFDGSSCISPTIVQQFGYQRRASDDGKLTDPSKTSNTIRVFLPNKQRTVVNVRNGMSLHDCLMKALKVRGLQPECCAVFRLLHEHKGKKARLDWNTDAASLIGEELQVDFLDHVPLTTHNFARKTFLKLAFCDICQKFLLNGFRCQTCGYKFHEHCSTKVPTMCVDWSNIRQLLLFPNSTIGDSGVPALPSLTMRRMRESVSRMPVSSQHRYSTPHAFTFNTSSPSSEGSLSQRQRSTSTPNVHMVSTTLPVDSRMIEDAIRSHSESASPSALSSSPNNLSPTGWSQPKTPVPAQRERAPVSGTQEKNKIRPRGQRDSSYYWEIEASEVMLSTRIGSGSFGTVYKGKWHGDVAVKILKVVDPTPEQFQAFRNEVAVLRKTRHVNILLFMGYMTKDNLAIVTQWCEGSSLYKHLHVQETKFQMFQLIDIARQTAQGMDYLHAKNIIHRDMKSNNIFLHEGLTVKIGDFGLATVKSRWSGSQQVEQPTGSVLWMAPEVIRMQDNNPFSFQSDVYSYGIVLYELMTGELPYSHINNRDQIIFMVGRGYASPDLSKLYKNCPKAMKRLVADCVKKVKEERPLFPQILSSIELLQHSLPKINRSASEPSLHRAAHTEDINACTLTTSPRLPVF
Chain of Mitogen-activated protein kinase kinase kinase 1/RAF proto-oncogene serine/threonine-protein kinase (Q13233 whole entry, further chain): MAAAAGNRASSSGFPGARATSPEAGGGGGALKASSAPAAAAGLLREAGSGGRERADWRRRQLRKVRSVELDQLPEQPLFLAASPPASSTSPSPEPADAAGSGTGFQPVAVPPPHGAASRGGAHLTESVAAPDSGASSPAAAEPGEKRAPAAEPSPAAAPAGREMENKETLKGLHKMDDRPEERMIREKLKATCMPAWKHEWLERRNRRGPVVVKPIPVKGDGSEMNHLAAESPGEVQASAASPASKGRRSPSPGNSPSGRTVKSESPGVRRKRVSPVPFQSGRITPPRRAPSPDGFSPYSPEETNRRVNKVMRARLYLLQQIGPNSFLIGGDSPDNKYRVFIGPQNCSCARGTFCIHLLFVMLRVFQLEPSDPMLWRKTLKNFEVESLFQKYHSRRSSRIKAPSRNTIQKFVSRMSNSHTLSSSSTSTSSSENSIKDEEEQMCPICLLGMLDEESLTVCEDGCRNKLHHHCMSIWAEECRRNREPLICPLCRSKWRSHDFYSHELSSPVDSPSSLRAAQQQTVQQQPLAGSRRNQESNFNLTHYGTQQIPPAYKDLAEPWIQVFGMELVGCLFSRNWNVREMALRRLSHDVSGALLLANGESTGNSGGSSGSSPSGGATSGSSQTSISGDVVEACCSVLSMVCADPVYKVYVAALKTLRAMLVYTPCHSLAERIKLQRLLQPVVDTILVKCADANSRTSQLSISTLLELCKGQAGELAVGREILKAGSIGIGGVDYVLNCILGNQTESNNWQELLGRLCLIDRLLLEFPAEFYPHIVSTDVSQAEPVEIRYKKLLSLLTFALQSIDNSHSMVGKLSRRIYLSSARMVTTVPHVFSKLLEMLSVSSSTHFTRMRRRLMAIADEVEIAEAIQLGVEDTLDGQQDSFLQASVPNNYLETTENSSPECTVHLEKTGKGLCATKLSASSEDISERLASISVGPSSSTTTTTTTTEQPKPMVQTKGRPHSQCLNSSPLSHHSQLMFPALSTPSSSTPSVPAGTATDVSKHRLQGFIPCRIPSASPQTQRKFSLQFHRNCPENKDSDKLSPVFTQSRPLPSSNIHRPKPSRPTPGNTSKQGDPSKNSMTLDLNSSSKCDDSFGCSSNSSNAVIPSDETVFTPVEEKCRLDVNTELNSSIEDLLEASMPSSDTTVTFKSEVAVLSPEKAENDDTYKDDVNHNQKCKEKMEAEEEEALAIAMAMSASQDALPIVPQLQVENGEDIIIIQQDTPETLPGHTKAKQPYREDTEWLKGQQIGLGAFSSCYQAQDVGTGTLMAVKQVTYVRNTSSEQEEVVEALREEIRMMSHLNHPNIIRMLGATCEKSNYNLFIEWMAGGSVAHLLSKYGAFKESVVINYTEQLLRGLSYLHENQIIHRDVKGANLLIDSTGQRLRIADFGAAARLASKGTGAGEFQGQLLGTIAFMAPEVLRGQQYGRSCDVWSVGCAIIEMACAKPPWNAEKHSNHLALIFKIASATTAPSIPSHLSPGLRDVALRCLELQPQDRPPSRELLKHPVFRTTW

Kd [pM]	SMILES
510	COCCNS(=O)(=O)Nc1cccc(Oc2c(C(=O)NC3CC3)c(Nc3ccc(I)cc3F)n(C)c(=O)c2C)c1Cl [US20230382863, Compound I-55]
480	CNS(=O)(=O)Nc1cccc(Oc2c(C(=O)NC(C)C)c(Nc3ccc(I)cc3F)n(C)c(=O)c2C)c1Cl [US20230382863, Compound I-41]
350	CCNC(=O)c1c(Oc2cccc(NS(=O)(=O)NC)c2Cl)c(C)c(=O)n(C)c1Nc1ccc(I)cc1F [US20230382863, Compound I-54]
510	CCNS(=O)(=O)Nc1cccc(Oc2c(C(=O)NC3CC3)c(Nc3ccc(I)cc3F)n(C)c(=O)c2C)c1Cl [US20230382863, Compound I-43]
380	CNS(=O)(=O)Nc1cccc(Oc2c(C(=O)NCC(F)(F)F)c(Nc3ccc(I)cc3F)n(C)c(=O)c2C)c1Cl [US20230382863, Compound I-45]
470	CNS(=O)(=O)Nc1cccc(Oc2c(C(=O)NC3CC3)c(Nc3ccc(I)cc3F)n(C)c(=O)c2C)c1OC(F)(F)F [US20230382863, Compound I-40]
570	Cc1c(Oc2cccc(NS(=O)(=O)NC3CC3)c2Cl)c(C(=O)NC2CC2)c(Nc2ccc(I)cc2F)n(C)c1=O [US20230382863, Compound I-42]
420	CNS(=O)(=O)Nc1cccc(Oc2c(C(=O)NC3CC3)c(Nc3ccc(I)cc3F)n(C)c(=O)c2C)c1OC [US20230382863, Compound I-1]

From BindingDB's records for patent US20230382863 (Ikena Oncology, 2023)
